{"source": "patent US20250214951A1", "about": "“3-PHENYLISOXAZOLE DERIVATIVE, AND PHARMACEUTICAL COMPOSITION FOR PREVENTING OR TREATING EYE DISEASE, CONTAINING SAME AS ACTIVE INGREDIENT” (VASTHERA CO., LTD., priority 2022, published 2025)", "key": {"[1]": {"test_system": "A2E-BDP present in human retinal pigment epithelial cells (ARPE-19)", "assay": "Screening of ability to remove A2E-fluorescent labeling substance (A2E-BDP), lysate fluorescence", "assay_type": "cell-based", "details": "ARPE-19, 24 h, ARPE-19 loaded with 10 μM A2E-BDP 24 h, test compound 50 μM once, fluorescence ex 485/em 535 nm, read-out: Capacity (%) to remove A2E-BDP at 50 μM", "protocol": "The human retinal pigment epithelial cell line (ARPE-19) used in the experiment was provided by ATCC (American Type Culture Collection). The ARPE-19 cell line was cultured in DMEM medium containing 10% FBS. After culture, the cells were dispensed into 96-well plates at a concentration of 4×10^3 cells/well and cultured for 24 hours. The ARPE-19 cell line was treated with A2E-fluorescent labeling substance (A2E-BDP) at a concentration of 10 μM for 24 hours to induce the accumulation of A2E-BDP in the ARPE-19 cell line.\nIn order to evaluate the intracellular A2E removal ability of the compound of the present invention, an easily detectable A2E-fluorescent labeling substance (A2E-BDP) was used. The ARPE-19 cells prepared by the above method were treated with each test compound at a concentration of 50 μM once, and then cultured for 24 hours. The cells were lysed by adding a cell lysis buffer containing a protease inhibitor (50 mM Tris-chloride, pH 8.0, 150 mM sodium chloride, 1% NP-40, 1% sodium deoxycholate, 1% sodium dodecyl sulfate, and 2 mM ethylenediamine tetraacetic acid) to each 96-well. The prepared cell lysate was transferred to a white 96-well plate, and the fluorescence intensity was measured using a fluorescence microplate reader (VICTOR™ X3, Perkin Elmer, USA) (excitation 485 nm, emission 535 nm)."}, "[2]": {"test_system": "A2E accumulated in ARPE-19 cells", "assay": "Removal of intracellular A2E measured by HPLC/LC-MS", "assay_type": "cell-based, human", "details": "ARPE-19 loaded with 50 μM A2E 48 h; 10, 25, 50 μM, 24 h; FIG. 2", "description": "In Table 1 and FIG. 1, in order to measure the reduction of intracellular A2E by compounds, A2E-fluorescent substance (A2E-BDP) that is easy to observe fluorescence was used. In previous research reports, A2E-BDP is known to have the same intracellular dynamics and characteristics as A2E, but since A2E is a substance that actually exists in a living body, the quantitative change in intracellular A2E was directly measured using the HPLC method as follows.\nARPE-19 cell lines were dispensed into 6-well plates at a concentration of 4×10^3 cells/well and cultured for 24 hours. ARPE-19 cell lines were treated with A2E at a concentration of 50 μM for 48 hours to accumulate A2E intracellularly. To evaluate the A2E removal ability, ARPE-19 cells containing A2E were treated with compound 17 of the present invention (10, 25, 50 μM) for 24 hours. Thereafter, ARPE-19 cells were washed with phosphate-buffered saline (PBS), and cell lysis buffer containing a protease inhibitor was added to prepare a cell lysate. Chloroform and methanol (2:1, vol/vol) were added to the sample obtained above, shaken to extract A2E, and then centrifuged at 10,000 g for 10 minutes. […] LC-MS (Shimadzu LC-MS 2010EV) analysis was performed using a C18 column ([…]) with acetonitrile and 0.1% formic acid (gradient, 0-100%, 0-10 min; flow rate 1.0 ml/min; monitored at 503 nm). […]"}, "[3]": {"test_system": "NF-κB (p65)", "assay": "Inhibition of blue light-induced NF-κB activation (p65 Western immunoblotting)", "assay_type": "cell-based, human", "details": "A2E and blue light; 10 and 25 μM; FIG. 4", "description": "When cells are stimulated by external pathogenic molecules (PAMPs), NF-κB dimers (p50-p65 dimers) are separated from IκB and activated. The separated NF-κB dimers pass through the nuclear membrane and enter the nucleus, where they bind to DNA and activate gene transcription, indicating the activation of NF-κB. Therefore, the inhibitory effect of the compound of the present invention on NF-κB activation can be evaluated by measuring changes in the cytoplasmic or nuclear levels of p65. The experiment was conducted as follows.\nARPE-19 cells were seeded in 6-well plates at a concentration of 2×10^4 cells/well and cultured for 24 hours. In order to induce A2E accumulation in the ARPE-19 cell line, cells were treated with A2E three times at a concentration of 25 μM at 48-hour intervals. 24 hours after the final A2E treatment, cells were treated with compound 17 of the present invention twice at concentrations of 10 and 25 μM at 24-hour intervals, respectively. […] The level of p65 was measured by Western immunoblotting using anti-p65 antibody (Cell Signaling Technology, MA, USA). The cytoplasmic and nuclear fractions were measured by Western immunoblotting in the same manner as above using antibodies against α-tubulin (Cell Signaling Technology) and histone H3 (Abcam, Cambridge, UK) as internal controls, respectively."}, "[4]": {"test_system": "p62 protein", "assay": "Restoration of autophagy inhibited by A2E and blue light (p62 Western)", "assay_type": "cell-based, human", "details": "ARPE-19, A2E accumulation and blue light; FIG. 10", "description": "Therefore, it was confirmed whether the compound of the present invention can restore autophagy inhibited by A2E and blue light.\nDuring the autophagosome formation process, p62 specifically binds to a substance to be degraded and simultaneously binds to LC3 protein to form an autophagosome. When autophagy is inhibited, aggregates composed of p62 and ubiquitinated proteins are formed and p62 accumulates in the cell. Therefore, by measuring the change in the level of intracellular p62, the improvement effect of the compound of the present invention on autophagy inhibited by A2E and blue light can be evaluated, and the experiment was conducted as follows.\nSpecifically, ARPE-19 cells were seeded into 6-well plates at a concentration of 2×10^4 cells/well and cultured for 24 hours. To induce A2E accumulation in the ARPE-19 cell line, the cells were treated with A2E three times at a concentration of 25 μM at 48-hour intervals. 24 hours after the final A2E treatment, the cells were treated with example 17 compound twice at 24-hour intervals each. […] The amount of intracellular p62 was measured by Western immunoblotting using an anti-p62 antibody (Santa Cruz, TX, USA). The amount of intracellular β-actin was measured in the same manner using anti-β-actin antibody (Santa Cruz) and used as a control."}}}
{"smiles": "C=CCOCc1cc(-c2cc(CC=C)ccc2OC)no1", "note": "[Example 17, 3-(5-allyl-2-methoxyphenyl)-5-((allyloxy)methyl)isoxazole]", "values": [{"measurement": "inhibition at 50 µM", "setting": "[1]", "result": "≥ 60", "unit": "%"}, {"measurement": "amount of accumulated A2E (HPLC)", "setting": "[2]", "result": "significantly reduced in a concentration-dependent manner"}, {"measurement": "activation of NF-κB (movement of p65 into the nucleus)", "setting": "[3]", "result": "activation of NF-κB was inhibited"}, {"measurement": "p62 protein concentration", "setting": "[4]", "result": "decreased in a concentration-dependent manner"}]}
